Experimental data published in ChEMBL document CHEMBL4715706, “Discovery of Benzotriazolo[4,3-d][1,4]diazepines as Orally Active Inhibitors of BET Bromodomains” (ACS Med Chem Lett, 2016).

Tests used:
[1] = target: Bromodomain-containing protein 4 (Homo sapiens, UniProt O60885)
Description: Inhibition of His/FLAG-tagged BRD4 BD1 (unknown origin) using histone H4-TetraAcetylated-biotin peptide as substrate incubated for 20 mins by AlphaLISA assay

[2] = Protein binding in rat plasma; format: ADME, cell-free; conditions: read-out: PPB (converted)
[3] = Intrinsic clearance in rat liver microsomes
[4] = Intrinsic clearance in human liver microsomes
[5] = Protein binding in dog plasma
[6] = Protein binding in mouse plasma
[7] = Intrinsic clearance in mouse liver microsomes
[8] = Intrinsic clearance in dog liver microsomes
[9] = Inhibition of BET in human THP-1 cells assessed as suppression of LPS-induced IL-6 release measured after 16 hrs by chemiluminescence ELISA; format: cell-based; conditions: THP-1, 16 h
[10] = Protein binding in human plasma; format: ADME, cell-free; conditions: read-out: PPB (converted)

Row | IC50 [1] | fraction unbound [2] | microsomal CLint [3] | microsomal CLint [4] | fraction unbound [5] | fraction unbound [6] | microsomal CLint [7] | microsomal CLint [8] | EC50 [9] | fraction unbound [10] | SMILES
1 | 62000 nM | – | – | – | – | – | – | – | – | – | Cc1nnc2n1-c1ccccc1NCC2
2 | 310 nM | 0.06 | 22 µL/min/mg | 27 µL/min/mg | 0.02 | 0.04 | 37 µL/min/mg | 69 µL/min/mg | 810 nM | 0.01 | Cc1noc2c1-c1ccc(-c3cnn(C)c3)cc1N(c1ccc(C#N)cc1)CC2CC(N)=O (stereo not given)
3 | 26 nM | 0.03 | 34 µL/min/mg | 6.4 µL/min/mg | 0.03 | 0.02 | – | 94 µL/min/mg | 16 nM | 0.02 | Cc1nnc2n1-c1ccc(-c3ccc(N)nc3)cc1N(c1ccc(Cl)cc1)CC2C (stereo not given)
4 | 550 nM | < 0.01 | 24 µL/min/mg | 17 µL/min/mg | < 0.01 | < 0.01 | 22 µL/min/mg | 18 µL/min/mg | 4600 nM | < 0.01 | Cc1noc2c1-c1ccccc1N(c1ccc(C#N)cc1)CC2
5 | 36 nM | 0.02 | 210 µL/min/mg | 62 µL/min/mg | < 0.01 | 0.01 | 44 µL/min/mg | 240 µL/min/mg | 78 nM | < 0.01 | Cc1noc2c1-c1ccc(-c3ccc(N)nc3)cc1N(c1ccc(C#N)cc1)CC2C (stereo not given)
6 | 46 nM | – | – | – | – | – | – | – | 100 nM | – | Cc1ccc(-c2ccc3c(c2)N(c2ccc(Cl)cc2)C[C@@H](C)c2nnc(C)n2-3)cn1
7 | 64 nM | 0.01 | 195 µL/min/mg | 86 µL/min/mg | < 0.01 | < 0.01 | 101 µL/min/mg | 165 µL/min/mg | 380 nM | < 0.01 | Cc1noc2c1-c1ccc(-c3ccc(N)nc3)cc1N(c1ccc(C#N)cc1)CC2
8 | 65 nM | – | – | – | – | – | – | – | 96 nM | – | Cc1nnc2n1-c1ccc(C(N)=O)cc1N(c1ccc(Cl)cc1)C[C@H]2C
9 | 790 nM | – | – | – | – | – | – | – | 790 nM | – | Cc1nnc2n1-c1ccc(-c3ccc(N)nc3)cc1N(c1ccc(Cl)cc1)C[C@@H]2C
10 | 1200 nM | 0.03 | 65 µL/min/mg | 25 µL/min/mg | – | – | – | – | 3100 nM | 0.02 | Cc1nnc2n1-c1ccccc1N(c1ccc(Cl)cc1)C(C)C2 (stereo not given)
11 | 280 nM | – | – | – | – | – | – | – | 450 nM | – | Cc1ncnn1-c1ccc2c(c1)N(c1ccc(Cl)cc1)C[C@@H](C)c1nnc(C)n1-2
12 | 32 nM | 0.03 | 71 µL/min/mg | 52 µL/min/mg | 0.02 | 0.01 | 64 µL/min/mg | 65 µL/min/mg | 94 nM | 0.02 | Cc1noc2c1-c1ccc(-c3ccc(=O)n(C)c3)cc1N(c1ccc(C#N)cc1)CC2C (stereo not given)
13 | 25 nM | – | – | – | – | – | – | – | 36 nM | – | Cc1nnc2n1-c1ccc(-c3ccc(=O)n(C)c3)cc1N(c1ccc(Cl)cc1)C[C@H]2C
14 | 1200 nM | – | – | – | – | – | – | – | 670 nM | – | Cc1nnc2n1-c1ccc(S(C)(=O)=O)cc1N(c1ccc(Cl)cc1)C[C@H]2C
15 | 1560 nM | 0.05 | 126 µL/min/mg | 154 µL/min/mg | 0.05 | 0.07 | 500 µL/min/mg | 390 µL/min/mg | 2300 nM | 0.05 | Cc1nnc2n1-c1ccccc1N(c1ccc(Cl)cc1)CC2
16 | 31 nM | 0.03 | 62 µL/min/mg | 33 µL/min/mg | 0.01 | 0.04 | 44 µL/min/mg | 22 µL/min/mg | 67 nM | 0.01 | Cc1noc2c1-c1ccc(-c3cnn(CC(N)=O)c3)cc1N(c1ccc(C#N)cc1)CC2C (stereo not given)
17 | 44 nM | 0.05 | 154 µL/min/mg | 14 µL/min/mg | 0.04 | 0.03 | 77 µL/min/mg | 91 µL/min/mg | 130 nM | 0.04 | Cc1nnc2n1-c1ccc(-c3cnn(C)c3)cc1N(c1ccc(Cl)cc1)CC2
18 | 2100 nM | 0.13 | 74 µL/min/mg | 44 µL/min/mg | 0.09 | 0.08 | 52 µL/min/mg | 33 µL/min/mg | 1800 nM | 0.09 | CCNC(=O)CC1CN(c2ccc(Cl)cc2)c2ccccc2-n2c(C)nnc21 (stereo not given)
19 | 74 nM | – | – | – | – | – | – | – | 41 nM | – | Cc1nnc2n1-c1ccc(-n3cncn3)cc1N(c1ccc(Cl)cc1)C[C@H]2C

Row | SMILES | IC50 [1] | fraction unbound [2] | microsomal CLint [3] | microsomal CLint [4] | fraction unbound [5] | fraction unbound [6] | microsomal CLint [7] | microsomal CLint [8] | EC50 [9] | fraction unbound [10]
20 | Cc1nnc2n1-c1ccccc1N(c1ccc(Cl)cc1)CC2C (stereo not given) | 350 nM | 0.04 | 25 µL/min/mg | 24 µL/min/mg | 0.05 | 0.04 | 110 µL/min/mg | 83 µL/min/mg | 290 nM | 0.03
